Test results: US9284333B2, “Fused pyrroledicarboxamides and their use as pharmaceuticals” (SANOFI, priority 2012, dated 2016)

Target: Human TASK-1 channels (Homo sapiens (Human), UniProt O14649)
Assay: Determination of the activity on the TASK-1 channel in Xenopus oocytes (two-microelectrode voltage clamp)
Type: cell-based
Details: compound concentration 5 μM
Summary of the method: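 Current during 500 ms pulses to 40 mV from a −90 mV hold was recorded in oocytes expressing human TASK-1 for two days after cRNA injection. Compounds were added cumulatively to the ND96 bath (pH 7.4, room temperature). IC50 came from dose-response fitting of inhibition relative to pre-compound current.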

Sequence of Human TASK-1 channels (O14649 whole entry): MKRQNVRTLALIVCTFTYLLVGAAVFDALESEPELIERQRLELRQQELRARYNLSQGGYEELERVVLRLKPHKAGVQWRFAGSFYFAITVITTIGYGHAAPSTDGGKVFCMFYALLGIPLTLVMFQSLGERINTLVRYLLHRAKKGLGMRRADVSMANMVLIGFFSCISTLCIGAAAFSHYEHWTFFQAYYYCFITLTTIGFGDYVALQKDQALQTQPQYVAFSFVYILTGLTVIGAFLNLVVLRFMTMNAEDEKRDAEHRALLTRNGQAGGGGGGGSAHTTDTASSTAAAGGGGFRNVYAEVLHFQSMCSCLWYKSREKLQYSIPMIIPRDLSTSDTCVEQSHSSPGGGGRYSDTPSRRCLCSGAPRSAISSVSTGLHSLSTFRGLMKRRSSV

TASK-1 inhibition [%] at 5 μM	Molecule
91%	3,4-Dihydro-1H-pyrrolo[2,1-c][1,4]oxazine-6,8-dicarboxylic acid 6-[(1H-indol-6-ylmethyl)-amide] 8-[((R)-1-phenyl-propyl)-amide] [16je]

Same assay, conditions: human TASK-1 expressed in Xenopus oocytes, room temperature; read-out: IC50 value for TASK-1 inhibition

IC50	Molecule
280 nM	CC[C@@H](NC(=O)c1cc(C(=O)NC(C)c2ncccn2)c2n1CCOC2)c1ccc(F)cc1Cl (stereo partly drawn) [16kp, 3,4-Dihydro-1H-pyrrolo[2,1-c][1,4]oxazine-6,8-dicarboxylic acid 6-{[(R)-1-(2-chloro-4-fluoro-phenyl)-propyl]-amide} 8-[(1-pyrimidin-2-yl-ethyl)-amide]]
2500 nM	CC[C@@H](NC(=O)c1cc(C(=O)NCc2nnn(C)n2)n2c1COCC2)c1ccccc1 [16rs, 3,4-Dihydro-1H-pyrrolo[2,1-c][1,4]oxazine-6,8-dicarboxylic acid 6-[(2-methyl-2H-tetrazol-5-ylmethyl)-amide] 8-[((R)-1-phenyl-propyl)-amide]]
76 nM	CC[C@@H](NC(=O)c1cc(C(=O)N2CCC[C@@H]2C)n2c1COCC2)c1cccc(C(F)(F)F)n1 [16ap]
190 nM	CC[C@@H](NC(=O)c1cc(C(=O)N[C@H](CC)c2ccc(F)cc2)n2c1C(C)OCC2)c1ccccc1 (stereo partly shown) [16lh]
200 nM	6-((S)-2-Methyl-pyrrolidine-1-carbonyl)-3(4-dihydro-1H-pyrrolo[2,1-c][1,4]oxazine-8-carboxylic acid [(R)-1-(2,2-difluoro-benzo[1,3]dioxol-5-yl)-propyl]-amide [16bz]
550 nM	CCC(NC(=O)c1cc(C(=O)N2CCC[C@@H]2C)n2c1COCC2)c1ccc(C(C)(F)F)cc1 (stereo partly drawn) [16bc, 6-((S)-2-Methyl-pyrrolidine-1-carbonyl)-3,4-dihydro-1H-pyrrolo[2,1-c][1,4]oxazine-8-carboxylic acid {1-[4-(1,1-difluoro-ethyl)-phenyl]-propyl}-amide]

Continued, molecule first:

Molecule	IC50
CC[C@@H](NC(=O)c1cc(C(=O)NCC(C)(C)C)n2c1COCC2)c1ccccc1 [16go, 3,4-Dihydro-1H-pyrrolo[2,1-c][1,4]oxazine-6,8-dicarboxylic acid 6-[(2,2-dimethyl-propyl)-amide] 8-[((R)-1-phenyl-propyl)-amide]]	900 nM
CC[C@@H](NC(=O)c1cc(C(=O)N2CCC[C@@H]2C)n2c1COCC2)c1cnc(C(F)(F)F)cc1Cl [16br, 6-((S)-2-Methyl-pyrrolidine-1-carbonyl)-3,4-dihydro-1H-pyrrolo[2,1-c][1,4]oxazine-8-carboxylic acid [(R)-1-(4-chloro-6-trifluoromethyl-pyridin-3-yl)-propyl]-amide]	880 nM
CC[C@@H](NC(=O)c1cc(C(=O)N2CC[C@H](OCC(C)C)C2)n2c1COCC2)c1ccccc1 [16fg, 6-((S)-3-Isobutoxy-pyrrolidine-1-carbonyl)-3,4-dihydro-1H-pyrrolo[2,1-c][1,4]oxazine-8-carboxylic acid ((R)-1-phenyl-propyl)-amide]	1300 nM
CC[C@@H](NC(=O)c1cc(C(=O)Nc2cnoc2)c2n1CCOC2)c1ccccc1 [16jv, 3,4-Dihydro-1H-pyrrolo[2,1-c][1,4]oxazine-6,8-dicarboxylic acid 8-isoxazol-4-ylamide 6-[((R)-1-phenyl-propyl)-amide]]	210 nM
CC[C@@H](NC(=O)c1cc(C(=O)N2CCCC2c2c(C)noc2C)n2c1COCC2)c1ccccc1 (stereo partly drawn) [16er, 6-[2-(3,5-Dimethyl-isoxazol-4-yl)-pyrrolidine-1-carbonyl]-3,4-dihydro-1H-pyrrolo[2,1-c][1,4]oxazine-8-carboxylic acid ((R)-1-phenyl-propyl)-amide]	320 nM
CC[C@@H](NC(=O)c1cc(C(=O)N[C@H](C)C2CC2)n2c1CCCC2)c1ccccc1 [16mw, 5,6,7,8-Tetrahydro-indolizine-1,3-dicarboxylic acid 3-[((R)-1-cyclopropyl-ethyl)-amide] 1-[((R)-1-phenyl-propyl)-amide]]	74 nM
